Assays:
[1] = biological target: dopaminergic receptors D2 (Homo sapiens, UniProt P14416); test: Radioligand binding assay, dopaminergic D2 receptors; settings: for inhibition at 1 µM: binding assay, test compound 1×10^−6 M; for Ki: read-out: Inhibition constants Ki for D2 receptors, D2
Procedure, shortened: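 Scintillation read-out. Specific = total − nonspecific (excess cold ligand). Data as % of control specific binding / % inhibition; IC50 by Hill fit; Ki = IC50/(1+L/KD), KD from Scatchard plot.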

[2] = biological target: T1, 5-HT1A receptor (rat hippocampus) (Rattus norvegicus, UniProt P19327); test: Radioligand binding assay, serotoninergic 5-HT1A receptors; settings: binding assay result in %, Table 5a
T1 construct: hippocampus; from tissue; host or cells: rat hippocampus
T1 sequence (P19327 1-422): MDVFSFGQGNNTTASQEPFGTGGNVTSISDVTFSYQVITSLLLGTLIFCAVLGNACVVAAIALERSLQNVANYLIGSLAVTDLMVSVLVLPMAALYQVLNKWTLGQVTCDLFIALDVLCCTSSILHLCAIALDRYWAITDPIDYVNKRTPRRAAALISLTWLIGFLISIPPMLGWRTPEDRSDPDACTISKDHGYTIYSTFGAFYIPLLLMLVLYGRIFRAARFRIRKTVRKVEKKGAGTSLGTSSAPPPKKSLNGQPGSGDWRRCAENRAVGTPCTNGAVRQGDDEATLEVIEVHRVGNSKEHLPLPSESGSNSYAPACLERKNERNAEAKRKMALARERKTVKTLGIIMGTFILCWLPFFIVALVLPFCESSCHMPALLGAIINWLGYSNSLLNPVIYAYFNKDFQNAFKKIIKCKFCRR

5-HT2A receptor = biological target: T2, 5-HT2A receptor (Homo sapiens, UniProt P28223); test: Radioligand binding assay, serotoninergic 5-HT2A receptors; settings: for inhibition at 1 µM: binding assay result in %, Table 5a; for Ki: read-out: Inhibition constants Ki, 5-HT2A
T2 construct: purchased PerkinElmer
T2 sequence (P28223 whole entry): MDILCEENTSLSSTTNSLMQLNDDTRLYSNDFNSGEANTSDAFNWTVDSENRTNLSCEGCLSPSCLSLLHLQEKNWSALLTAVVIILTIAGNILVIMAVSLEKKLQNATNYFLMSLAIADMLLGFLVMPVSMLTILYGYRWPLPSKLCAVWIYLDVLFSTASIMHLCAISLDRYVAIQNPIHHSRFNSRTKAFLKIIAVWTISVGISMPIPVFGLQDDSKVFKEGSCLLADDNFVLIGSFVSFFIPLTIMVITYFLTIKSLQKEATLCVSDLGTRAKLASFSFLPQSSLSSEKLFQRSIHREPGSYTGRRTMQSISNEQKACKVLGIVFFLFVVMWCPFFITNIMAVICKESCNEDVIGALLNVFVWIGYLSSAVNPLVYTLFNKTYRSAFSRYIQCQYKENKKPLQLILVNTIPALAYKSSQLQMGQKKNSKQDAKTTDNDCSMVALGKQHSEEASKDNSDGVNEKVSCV
Procedure, shortened: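 Competition curves from scintillation-counted specific binding (total minus binding with excess unlabelled ligand) were Hill-fitted to give IC50, converted to Ki via Cheng-Prusoff using Scatchard-derived Kd.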

5-HT7 receptor = biological target: T3, 5-HT7 receptor (Homo sapiens, UniProt P34969); test: Radioligand binding assay, serotoninergic 5-HT7 receptors; settings: binding assay result in %, Table 5a
T3 construct: purchased PerkinElmer
T3 sequence (P34969 whole entry): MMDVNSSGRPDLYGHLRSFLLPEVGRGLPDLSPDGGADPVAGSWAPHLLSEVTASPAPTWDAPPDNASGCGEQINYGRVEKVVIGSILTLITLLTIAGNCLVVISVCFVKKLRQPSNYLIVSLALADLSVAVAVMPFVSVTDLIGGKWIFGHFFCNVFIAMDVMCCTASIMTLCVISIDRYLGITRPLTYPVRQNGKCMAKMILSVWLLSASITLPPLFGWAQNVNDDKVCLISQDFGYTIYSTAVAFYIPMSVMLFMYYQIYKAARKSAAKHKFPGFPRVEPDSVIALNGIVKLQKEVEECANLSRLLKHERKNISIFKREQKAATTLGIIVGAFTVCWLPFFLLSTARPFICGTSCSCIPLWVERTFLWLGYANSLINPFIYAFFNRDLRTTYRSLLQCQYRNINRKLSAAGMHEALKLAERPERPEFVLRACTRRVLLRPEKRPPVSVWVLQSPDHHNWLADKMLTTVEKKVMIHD
Procedure, shortened: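 Ki values used the Cheng–Prusoff equation, with KD from Scatchard analysis, applied to IC50 from Hill fits of human 5-HT7 radioligand competition curves. Bound radioligand was counted by scintillation, and excess unlabelled ligand set the non-specific binding.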

[3] = test system: α1 adrenergic receptors (rat cerebral cortex); test: Radioligand binding assay, adrenergic α1 receptors; settings: test compound 1×10^−6 M
Procedure, shortened: (§1)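 Values derive from radioligand displacement, with non-specific binding defined by excess cold ligand and detection by scintillation. Hill-fit IC50s were converted to Ki via Cheng-Prusoff using Scatchard-derived Kd; percent inhibition of control specific binding also reported.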

α2C adrenergic receptors = biological target: T4, α2C adrenergic receptors (Homo sapiens, UniProt P18825); test: Radioligand binding assay, adrenergic α2C receptors; settings: test compound 1×10^−6 M
T4 construct: expressed in transfected cells; host or cells: CHO cells
T4 sequence (P18825 1-462): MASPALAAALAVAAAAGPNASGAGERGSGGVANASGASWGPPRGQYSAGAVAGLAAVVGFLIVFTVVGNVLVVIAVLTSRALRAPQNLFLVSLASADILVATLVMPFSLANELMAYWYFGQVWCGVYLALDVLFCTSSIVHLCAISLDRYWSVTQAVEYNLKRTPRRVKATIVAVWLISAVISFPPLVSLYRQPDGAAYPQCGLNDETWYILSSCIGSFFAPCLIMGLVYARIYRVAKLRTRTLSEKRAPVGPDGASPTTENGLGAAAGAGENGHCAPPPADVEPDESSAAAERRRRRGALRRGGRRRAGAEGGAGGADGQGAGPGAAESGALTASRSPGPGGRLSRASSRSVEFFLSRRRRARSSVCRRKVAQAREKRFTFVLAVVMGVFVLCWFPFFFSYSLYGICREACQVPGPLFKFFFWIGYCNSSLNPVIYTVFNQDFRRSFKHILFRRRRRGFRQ
Procedure, shortened: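 Competitive radioligand binding at human α2C receptors, with scintillation counting. Nonspecific binding defined with excess unlabelled ligand; results given as % inhibition of control specific binding. IC50 from Hill-equation fits of competition curves; Ki via Cheng-Prusoff using radioligand concentration and Scatchard-derived KD.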

[4] = biological target: T5, H1 histaminergic receptors (Homo sapiens, UniProt P35367); test: Radioligand binding assay, histaminergic H1 receptors; settings: human recombinant (HEK-293 cells), [3H]pyrilamine 1 nM
T5 construct: expressed in transfected cells; host or cells: HEK-293 cells
T5 sequence (P35367 whole entry): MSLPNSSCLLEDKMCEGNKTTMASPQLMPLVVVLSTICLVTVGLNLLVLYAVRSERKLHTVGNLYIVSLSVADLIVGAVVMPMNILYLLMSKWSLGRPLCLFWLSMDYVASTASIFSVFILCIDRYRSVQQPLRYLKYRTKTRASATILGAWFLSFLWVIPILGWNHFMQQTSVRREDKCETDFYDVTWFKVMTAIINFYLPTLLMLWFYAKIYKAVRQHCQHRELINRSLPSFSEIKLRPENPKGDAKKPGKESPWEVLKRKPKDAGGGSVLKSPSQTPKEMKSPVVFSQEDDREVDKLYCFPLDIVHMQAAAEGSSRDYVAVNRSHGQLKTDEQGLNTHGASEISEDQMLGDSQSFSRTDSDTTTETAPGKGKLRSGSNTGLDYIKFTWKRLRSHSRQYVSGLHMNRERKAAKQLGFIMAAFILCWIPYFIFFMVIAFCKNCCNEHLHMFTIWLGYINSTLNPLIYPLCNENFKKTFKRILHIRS
Procedure, shortened: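 Competition binding at human H1 receptors; specific binding taken as total minus non-specific binding in excess unlabelled ligand, scintillation read-out. IC50 from Hill-equation fit of competition curves; Ki by Cheng-Prusoff using radioligand concentration and Kd (from Scatchard plot).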

σ receptors = test: Radioligand binding assay, σ receptors; settings: rat cerebral cortex, [3H]DTG 8 nM
Procedure, shortened: as §1

Chain of dopaminergic receptors D2 (P14416 whole entry): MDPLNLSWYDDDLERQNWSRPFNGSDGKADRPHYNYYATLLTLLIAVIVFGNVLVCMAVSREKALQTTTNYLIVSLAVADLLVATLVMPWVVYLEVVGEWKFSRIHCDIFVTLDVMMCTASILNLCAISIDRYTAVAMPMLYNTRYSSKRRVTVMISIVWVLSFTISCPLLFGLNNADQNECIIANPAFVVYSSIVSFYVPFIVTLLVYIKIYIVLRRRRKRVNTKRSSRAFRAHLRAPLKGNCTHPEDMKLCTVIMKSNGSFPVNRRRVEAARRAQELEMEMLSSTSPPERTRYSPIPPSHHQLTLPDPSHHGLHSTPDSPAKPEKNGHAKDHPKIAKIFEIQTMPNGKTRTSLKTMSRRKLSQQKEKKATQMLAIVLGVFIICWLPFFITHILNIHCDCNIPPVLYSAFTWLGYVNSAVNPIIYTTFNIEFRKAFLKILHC

Compound	inhibition at 1 µM [1] [%]	Ki [1] [nM]	inhibition at 1 µM [2] [%]	inhibition at 1 µM (5-HT2A receptor) [%]	Ki (5-HT2A receptor) [nM]	inhibition at 1 µM (5-HT7 receptor) [%]	α1 [%] [3] [%]	inhibition at 1 µM (α2C adrenergic receptors) [%]	inhibition at 1 µM [4] [%]	σ [%] (σ receptors)
Cc1c(S(=O)(=O)NCC2CN(CCCc3noc4cc(F)ccc34)C2)sc2ccc(Cl)cc12 [Compound 131, 5-Chloro-N-[[1-[3-(6-fluoro-1,2-benzoxazol-3-yl)propyl]azetidin-3-yl]-methyl]-3-methyl-benzothiophene-2-sulphonamide]	97	19	87	99	5.5	95	70	92	51	92
O=S(=O)(NCC1CN(CCCc2noc3cc(F)ccc23)C1)c1ccc2ccccc2c1 [Compound 134, N-[[1-[3-(6-Fluoro-1,2-benzoxazol-3-yl)propyl]azetidin-3-yl]methyl]-naphthalene-2-sulphonamide]	96		73	99		95	61	87	45	88
O=S(=O)(NC1CCN(CCOc2cccc3ccccc23)C1)c1ccc2ccccc2c1 (centres unmarked) [Compound 116, N-[1-[2-(1-Naphthyloxy)ethyl]pyrrolidin-3-yl]naphthalene-2-sulphonamide]	91		99	96		-49	23	93		56
CC1(C)Cc2cccc(OCCN3CCC(NS(=O)(=O)c4ccc5ccccc5c4)C3)c2O1 (centres unmarked) [Compound 108, N-[1-[2-[(2,2-Dimethyl-3H-benzofuran-7-yl)oxy]ethyl]pyrrolidin-3-yl]naphthalene-2-sulphonamide]	93		98	98		98	40	83	23	45
O=S(=O)(NCC1CN(CCCc2noc3cc(F)ccc23)C1)c1cccc2ccccc12 [Compound 133, N-[[1-[3-(6-Fluoro-1,2-benzoxazol-3-yl)propyl]azetidin-3-yl]methyl]-naphthalene-1-sulphonamide]	93		52	95		97	90	91	58	93
CC1(C)Cc2cccc(OCCN3CCC(NS(=O)(=O)c4cccc(O)c4)C3)c2O1 (centres unmarked) [Compound 107, N-[1-[2-[(2,2-Dimethyl-3H-benzofuran-7-yl)oxy]ethyl]pyrrolidin-3-yl]-3-hydroxybenzenesulphonamide]	89		100	97		84	28	77	30	47
O=S(=O)(NCC1CN(CCOc2cccc3ccccc23)C1)c1ccc2ccccc2c1 [Compound 122, N-[[1-[2-(1-Naphthyloxy)ethyl]azetidin-3-yl]methyl]naphthalene-2-sulphonamide]	99		99	83		100	53	101		81
O=S(=O)(NCC1CCN(CCOc2cccc3ccccc23)C1)c1ccc2ccccc2c1 (centres unmarked) [Compound 124, N-[[1-[2-(1-Naphthyloxy)ethyl]pyrrolidin-3-yl]methyl]naphthalene-2-sulphonamide]	94		99	87		99	33	95		82
Cc1cccc(S(=O)(=O)NC2CCN(CCCc3c[nH]c4ccc(Cl)cc34)C2)c1 (centres unmarked) [Compound 86, N-[1-[3-(5-chloro-1H-indol-3-yl)propyl]pyrrolidin-3-yl]-3-methyl-benzenesulphonamide]	93		101	97		98	50	106	70	65
Cc1c(S(=O)(=O)NCC2CN(CCCc3noc4cc(F)ccc34)C2)sc2ccc(F)cc12 [Compound 130, 5-Fluoro-N-[[1-[3-(6-fluoro-1,2-benzoxazol-3-yl)propyl]azetidin-3-yl]methyl]-3-methyl-benzothiophene-2-sulphonamide]	97	10	85	100	4.2	98	86	88	51	94
O=S(=O)(NCC1CN(CCCc2noc3cc(F)ccc23)C1)c1ccc2scnc2c1 [Compound 132, N-[[1-[3-(6-Fluoro-1,2-benzoxazol-3-yl)propyl]azetidin-3-yl]methyl]-1,3-benzothiazole-5-sulphonamide]	82		57	97		94	86	73	33	80

Reference: US20140135310A1, “SULPHONAMIDE DERIVATIVES OF ALICYCLIC AMINES FOR THE TREATMENT OF CENTRAL NERVOUS SYSTEM DISEASES” (Adamed Sp. z o.o., priority 2011, published 2014)
